Measured values reported in patent US20210346392A1, “PHARMACEUTICAL COMPOSITION FOR ORAL ADMINISTRATION” (ASTELLAS PHARMA INC., priority 2018, published 2021).
Converted amounts (≈) assume the structure as drawn. Where two headings read alike, the source gives them in different places.

Assays:
[1] = Storage stability: total amount of related substances by HPLC (Experimental Example 1); assay type: physicochemical; conditions: stored at 40° C., 75% RH for 1 month, glass bottle, covered
Description: The storage stability as used herein can be evaluated by measuring the change in the amount of related substances derived from compound A when the pharmaceutical composition for oral administration is stored under certain storage conditions. For example, after the pharmaceutical composition for oral administration is stored under certain conditions, the total amount of related substances of compound A contained in the pharmaceutical composition for oral administration, or a specific related substance of compound A is measured. […] The percentage (%) of the total peak area of related substances with respect to the sum of all peak areas including the peak area of compound A are calculated, and is compared with the value before storage to calculate the amount of change (the amount of increase)(%). Alternatively, as shown in Experimental Example 3 described below, the percentage (%) of the peak area of related substance A with respect to the sum of all peak areas obtained in the same manner is calculated, and it is also possible to evaluate the storage stability by the change over time of related substance A.
The physical mixtures obtained in Example 1 and Comparative Example 1 were placed in glass bottles, covered, and stored at 40° C., 75% RH for 1 month, and the total amount of related substances before and after storage was measured by the method described below. […]

[2] = Solubility of compound A in Japanese Pharmacopoeia dissolution test fluids; assay type: physicochemical; conditions: for solubility: Seventeenth Edition
Description: When compound A was formulated, the solubility of compound A was confirmed based on a Dissolution Test of the Japanese Pharmacopoeia, Seventeenth Edition, and there was a large difference between an acidic pH range and a neutral pH range.

Q: With `Cc1nc(CN2CCS(=O)(=O)CC2)c2cc(C3CCC(C)(C)CC3)sc2n1` [Compound A, 6-(4,4-Dimethylcyclohexyl)-4-[(1,1-dioxo-1λ^6-thiomorpholin-4-yl)methyl]-2-methylthieno[2,3-d]pyrimidine] as the compound, how does the “Increased amount of total related substances (%) (n = 2)” value [1] read?
A: 0.00%

Q: And the “Increased amount of total related substances (%) (n = 2)” value ([1]; listed as compound A)?
A: did not increase

Q: What about the “difference of solubility between acidic and neutral pH range” value ([2]; first fluid vs second fluid) of the same compound?
A: approximately 30 times

Q: What about the solubility ([2]; pH 1.2, simulated gastric fluid, first fluid for a Dissolution Test of the Japanese Pharmacopoeia, read-out: solubility in an acidic pH range) of the same compound?
A: ~41 µg/mL (≈ 101 µM)

Q: What about the solubility ([2]; pH 6.8, aqueous buffer, second fluid for a Dissolution Test of the Japanese Pharmacopoeia, read-out: solubility at a neutral pH range) of the same compound?
A: ~1.2 µg/mL (≈ 2.94 µM)
